# Experimental data: US20120164226A1, “Compositions and Methods for Improving Prognosis of a Human with Subarachnoid Hemorrhage” (priority 2007, published 2012)
# How the values were obtained:
# [1] = system: Subarachnoid Hemorrhage (SAH) Dog Model; assay: Study 2: angiographic vasospasm (basilar artery diameter) in SAH dog model; assay type: in vivo; conditions: oral nimodipine 0.86 mg/kg six times per day till day 21
# Method: The mixture was added to a surfactant containing aqueous solution to form an emulsion and the solvent extracted to produce the flowable microparticulate nimodipine formulation. […] The microparticulate nimodipine formulation is combined with a pharmaceutical carrier to form the pharmaceutical composition of the described invention. […] The placebo formulation contained the microparticles plus vehicle, but no nimodipine. […] (Data not shown). […] On Day 1, the dogs were weighed, baseline blood was collected and blood pressure, temperature, heart rate oxygen, and blood gases were monitored throughout the surgical procedure. Cerebral angiography was performed through one vertebral artery. Images were captured using identical exposure factors and magnification for every angiogram. An internal magnification standard was included in every angiogram. […] The needle was withdrawn immediately after the injection. […] The animal was then turned supine, the femoral catheter was removed, and the femoral artery was ligated. The incision was closed in a standard fashion. […] The angiographic data was independently analyzed by two reviewers who were blinded to the animal group. […] Individual percent vasospasm was determined for each animal for Days 8 and 15 using formula (I): Average percent vasospasm for Days 8 and 15 was also determined for each group. […]
# [2] = biological target: T1, R-type calcium current in the neurohypophysial nerve endings (Homo sapiens, UniProt Q15878); conditions: 40 nM concentration; cited from earlier work
# T1 construct: R-type calcium current in the neurohypophysial nerve endings at 40 nM concentration; host or cells: neurohypophysial nerve endings
# [3] = biological target: N-type calcium current (Homo sapiens, UniProt Q00975); conditions: 300 nM to 500 nM; cited from earlier work
# [4] = system: K^+ currents; conditions: cited from earlier work
# [5] = system: Na^+ currents; conditions: cited from earlier work
# [6] = system: L-type calcium currents; conditions: cited from earlier work
# [7] = biological target: P/Q-type calcium currents (Homo sapiens, UniProt O00555); conditions: cited from earlier work
# [8] = system: T-type calcium currents; conditions: cited from earlier work
# [9] = system: R-type current in preparations of the neuronal cell body, retinal ganglion cells and hippocampal pyramidal cells; conditions: cited from earlier work
# P/Q-type calcium currents, sequence (O00555 whole entry): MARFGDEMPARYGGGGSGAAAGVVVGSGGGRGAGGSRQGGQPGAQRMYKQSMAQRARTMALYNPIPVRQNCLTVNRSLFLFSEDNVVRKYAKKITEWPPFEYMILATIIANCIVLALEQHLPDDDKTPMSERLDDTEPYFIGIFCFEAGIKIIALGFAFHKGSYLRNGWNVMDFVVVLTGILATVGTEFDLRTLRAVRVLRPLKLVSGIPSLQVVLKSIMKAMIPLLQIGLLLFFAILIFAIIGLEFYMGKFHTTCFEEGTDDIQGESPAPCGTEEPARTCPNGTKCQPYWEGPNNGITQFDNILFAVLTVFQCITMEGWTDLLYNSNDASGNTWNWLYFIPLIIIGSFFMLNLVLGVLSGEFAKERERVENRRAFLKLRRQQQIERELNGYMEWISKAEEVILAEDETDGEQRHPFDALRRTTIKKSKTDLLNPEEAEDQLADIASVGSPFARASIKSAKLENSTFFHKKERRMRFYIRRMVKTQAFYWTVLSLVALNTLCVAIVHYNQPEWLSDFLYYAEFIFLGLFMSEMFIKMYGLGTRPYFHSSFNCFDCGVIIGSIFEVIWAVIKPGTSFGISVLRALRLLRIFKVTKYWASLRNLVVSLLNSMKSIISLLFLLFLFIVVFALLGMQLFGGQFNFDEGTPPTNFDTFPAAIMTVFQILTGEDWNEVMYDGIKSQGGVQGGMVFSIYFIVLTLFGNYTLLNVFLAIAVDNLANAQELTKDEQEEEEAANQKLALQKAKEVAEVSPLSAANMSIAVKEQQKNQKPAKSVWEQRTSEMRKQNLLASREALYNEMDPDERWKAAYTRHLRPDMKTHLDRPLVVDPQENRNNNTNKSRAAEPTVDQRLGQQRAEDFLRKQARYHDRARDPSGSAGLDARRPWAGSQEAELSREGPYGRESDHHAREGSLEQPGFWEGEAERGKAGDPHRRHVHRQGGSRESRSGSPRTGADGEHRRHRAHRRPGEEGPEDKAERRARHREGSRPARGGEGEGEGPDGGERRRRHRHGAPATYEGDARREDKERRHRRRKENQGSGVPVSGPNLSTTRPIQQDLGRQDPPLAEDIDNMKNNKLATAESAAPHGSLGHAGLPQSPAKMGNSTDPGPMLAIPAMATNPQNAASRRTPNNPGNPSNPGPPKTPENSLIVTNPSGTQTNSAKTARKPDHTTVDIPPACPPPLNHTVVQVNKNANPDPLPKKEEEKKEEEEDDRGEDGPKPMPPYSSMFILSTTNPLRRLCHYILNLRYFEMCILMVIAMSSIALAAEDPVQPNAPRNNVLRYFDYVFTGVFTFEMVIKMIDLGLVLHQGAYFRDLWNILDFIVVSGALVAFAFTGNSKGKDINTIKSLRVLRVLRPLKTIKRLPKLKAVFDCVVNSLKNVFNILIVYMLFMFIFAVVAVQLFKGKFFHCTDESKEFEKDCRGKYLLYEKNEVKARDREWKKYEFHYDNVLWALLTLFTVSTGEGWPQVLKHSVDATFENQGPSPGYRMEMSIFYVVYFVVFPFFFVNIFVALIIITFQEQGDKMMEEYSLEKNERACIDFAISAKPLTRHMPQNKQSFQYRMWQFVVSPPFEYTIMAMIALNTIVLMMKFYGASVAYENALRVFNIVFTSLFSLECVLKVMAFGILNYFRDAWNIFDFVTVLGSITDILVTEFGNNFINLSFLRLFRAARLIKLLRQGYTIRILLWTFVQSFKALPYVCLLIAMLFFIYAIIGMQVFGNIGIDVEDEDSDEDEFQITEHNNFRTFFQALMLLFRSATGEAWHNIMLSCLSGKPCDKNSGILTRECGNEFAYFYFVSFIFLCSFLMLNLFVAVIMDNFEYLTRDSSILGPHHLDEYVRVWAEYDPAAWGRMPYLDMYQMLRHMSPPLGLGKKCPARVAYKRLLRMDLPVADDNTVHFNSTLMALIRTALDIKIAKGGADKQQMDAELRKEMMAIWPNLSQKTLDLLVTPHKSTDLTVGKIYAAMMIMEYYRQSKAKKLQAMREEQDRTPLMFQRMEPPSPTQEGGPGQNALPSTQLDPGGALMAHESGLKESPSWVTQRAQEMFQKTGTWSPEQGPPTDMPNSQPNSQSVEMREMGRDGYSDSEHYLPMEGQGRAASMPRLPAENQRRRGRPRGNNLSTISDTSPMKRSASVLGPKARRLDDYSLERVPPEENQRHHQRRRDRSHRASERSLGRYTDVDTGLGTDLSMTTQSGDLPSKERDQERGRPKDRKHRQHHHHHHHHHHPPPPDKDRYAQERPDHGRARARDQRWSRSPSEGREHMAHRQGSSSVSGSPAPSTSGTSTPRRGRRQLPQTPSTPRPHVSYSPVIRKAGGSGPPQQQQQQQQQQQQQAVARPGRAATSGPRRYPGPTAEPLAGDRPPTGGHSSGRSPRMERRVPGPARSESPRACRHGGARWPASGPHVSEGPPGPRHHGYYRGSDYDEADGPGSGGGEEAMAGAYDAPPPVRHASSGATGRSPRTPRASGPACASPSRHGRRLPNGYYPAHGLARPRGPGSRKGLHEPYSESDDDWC
# N-type calcium current, sequence (Q00975 whole entry): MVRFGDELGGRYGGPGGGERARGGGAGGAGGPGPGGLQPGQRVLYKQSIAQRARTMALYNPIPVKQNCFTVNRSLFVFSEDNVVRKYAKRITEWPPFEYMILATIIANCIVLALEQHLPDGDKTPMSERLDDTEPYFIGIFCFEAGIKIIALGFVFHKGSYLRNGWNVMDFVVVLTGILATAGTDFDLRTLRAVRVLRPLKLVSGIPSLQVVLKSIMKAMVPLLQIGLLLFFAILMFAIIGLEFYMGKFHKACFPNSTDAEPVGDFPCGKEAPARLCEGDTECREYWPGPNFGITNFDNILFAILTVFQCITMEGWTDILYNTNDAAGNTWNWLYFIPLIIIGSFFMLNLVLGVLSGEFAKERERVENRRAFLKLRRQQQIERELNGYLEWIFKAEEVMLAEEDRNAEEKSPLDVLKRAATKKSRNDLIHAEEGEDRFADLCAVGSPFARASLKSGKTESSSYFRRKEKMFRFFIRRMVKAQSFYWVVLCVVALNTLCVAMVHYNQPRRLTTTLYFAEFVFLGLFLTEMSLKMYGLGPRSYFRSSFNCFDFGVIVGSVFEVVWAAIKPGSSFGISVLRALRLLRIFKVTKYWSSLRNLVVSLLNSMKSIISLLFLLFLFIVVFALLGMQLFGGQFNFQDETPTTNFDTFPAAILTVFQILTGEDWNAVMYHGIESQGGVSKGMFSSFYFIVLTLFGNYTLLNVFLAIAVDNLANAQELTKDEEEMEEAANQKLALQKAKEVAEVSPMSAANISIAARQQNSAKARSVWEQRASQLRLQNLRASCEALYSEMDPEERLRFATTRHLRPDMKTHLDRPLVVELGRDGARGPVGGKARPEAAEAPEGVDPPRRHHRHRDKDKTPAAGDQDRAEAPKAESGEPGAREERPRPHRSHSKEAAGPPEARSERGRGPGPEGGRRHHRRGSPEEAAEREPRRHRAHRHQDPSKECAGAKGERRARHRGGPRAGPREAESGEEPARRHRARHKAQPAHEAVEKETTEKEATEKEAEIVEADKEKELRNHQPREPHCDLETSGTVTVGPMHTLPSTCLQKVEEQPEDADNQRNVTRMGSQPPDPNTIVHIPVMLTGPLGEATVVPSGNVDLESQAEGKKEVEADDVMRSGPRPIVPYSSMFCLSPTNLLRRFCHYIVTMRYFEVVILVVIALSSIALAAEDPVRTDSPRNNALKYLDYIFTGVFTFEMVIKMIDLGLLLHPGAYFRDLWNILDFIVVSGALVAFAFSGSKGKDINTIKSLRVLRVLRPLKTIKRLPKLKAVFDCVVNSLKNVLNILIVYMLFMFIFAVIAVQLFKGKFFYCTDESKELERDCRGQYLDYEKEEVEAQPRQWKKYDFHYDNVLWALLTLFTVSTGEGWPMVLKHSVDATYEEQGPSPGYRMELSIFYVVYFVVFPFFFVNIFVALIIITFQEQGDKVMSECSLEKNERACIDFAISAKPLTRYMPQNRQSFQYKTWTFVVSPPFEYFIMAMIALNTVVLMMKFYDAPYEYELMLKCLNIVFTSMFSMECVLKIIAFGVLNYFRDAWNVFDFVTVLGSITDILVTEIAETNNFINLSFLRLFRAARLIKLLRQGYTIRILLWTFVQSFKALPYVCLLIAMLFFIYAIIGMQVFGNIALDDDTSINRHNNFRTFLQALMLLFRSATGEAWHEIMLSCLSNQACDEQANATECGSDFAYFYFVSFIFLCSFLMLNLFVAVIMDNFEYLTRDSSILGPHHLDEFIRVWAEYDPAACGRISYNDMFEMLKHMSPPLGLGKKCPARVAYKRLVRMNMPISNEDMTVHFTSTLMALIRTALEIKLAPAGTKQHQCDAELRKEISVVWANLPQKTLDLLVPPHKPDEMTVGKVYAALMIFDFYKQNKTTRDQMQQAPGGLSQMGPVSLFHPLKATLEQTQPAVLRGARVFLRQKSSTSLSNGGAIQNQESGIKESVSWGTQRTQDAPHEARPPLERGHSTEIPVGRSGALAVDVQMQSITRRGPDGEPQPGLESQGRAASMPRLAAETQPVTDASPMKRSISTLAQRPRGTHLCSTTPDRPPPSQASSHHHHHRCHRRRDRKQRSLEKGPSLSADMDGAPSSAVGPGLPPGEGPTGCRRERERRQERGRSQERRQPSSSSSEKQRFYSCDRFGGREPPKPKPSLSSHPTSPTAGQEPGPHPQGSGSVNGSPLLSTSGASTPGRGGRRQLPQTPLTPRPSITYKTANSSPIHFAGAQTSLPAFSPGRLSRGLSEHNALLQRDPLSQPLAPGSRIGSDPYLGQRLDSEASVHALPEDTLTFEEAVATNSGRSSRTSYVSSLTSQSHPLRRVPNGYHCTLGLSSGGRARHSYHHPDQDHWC
Compound,"percent vasospasm (% change in mean basilar artery diameter from baseline), Mean ([1]; Day 8) [%]","percent vasospasm (% change in mean basilar artery diameter from baseline), Mean ([1]; Day 15) [%]",block of R-type calcium current [2],N-type calcium current blocked [3],effect on K+ currents [4],effect on Na+ currents [5],effect on L-type calcium currents [6],effect on P/Q-type calcium currents [7],effect on T-type calcium currents [8],effect on R-type current [9]
"COCCOC(=O)C1=C(C)NC(C)=C(C(=O)OC(C)C)C1c1cccc([N+](=O)[O-])c1 (stereo not shown) [Control, nimodipine]",−27.89,−11.67,–,–,–,–,–,–,–,–
SNX-482,–,–,blocks,30-50%,no effect,no effect,no effect,no effect,no effect,no significant effect
